Experimental data: ChEMBL document CHEMBL1201862, “PubChem BioAssay data set” (2004)
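Method: 48-hour compound exposure of cells in 96-well plates, five concentrations, linear interpolation of endpoints. GI50: concentration for 50% inhibition of growth.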 Calls of active or inactive are those of the source. No stated cut-off is given here; in the data, active = GI50 up to about 1.1 µM and inactive = higher.

Key:
Assay in all cases: NCI anticancer screen, dose series, 48 h
[1] = tested on: KM12
[2] = tested on: OVCAR-8
[3] = tested on: SW-620
[4] = tested on: SF-268
[5] = tested on: UACC-62
[6] = tested on: TK-10
[7] = tested on: Malme-3M
[8] = tested on: 786-0
[9] = tested on: UACC-257
[10] = tested on: COLO 205
[11] = tested on: HCT-116
[12] = tested on: HT-29
[13] = tested on: A498
[14] = tested on: OVCAR-3
[15] = tested on: HOP-62
[16] = tested on: RPMI-8226
[17] = tested on: SK-MEL-2
[18] = tested on: RXF 393

Measured: GI50

CC(C)c1cccc(C(C)C)c1NC(=O)CCC(=O)NN
inactive: [1] > 100 µM | [2] > 100 µM | [3] 21.9 µM | [4] > 100 µM | [5] > 100 µM | [6] > 100 µM | [7] > 100 µM | [8] > 100 µM | [9] > 100 µM | [10] 19.6 µM | [11] 66.4 µM | [12] > 100 µM | [13] > 100 µM | [14] > 100 µM | [15] > 100 µM | [16] 46.1 µM

O=C1Cc2ccccc2N1/N=C\c1ccc([N+](=O)[O-])cc1
inactive: [1] > 100 µM | [2] > 100 µM | [3] > 100 µM | [4] > 100 µM | [5] > 100 µM | [6] > 100 µM | [7] > 100 µM | [8] > 100 µM | [9] > 100 µM | [10] > 100 µM | [11] > 100 µM | [12] > 100 µM | [17] > 100 µM | [13] > 100 µM | [14] > 100 µM | [15] > 100 µM | [16] > 100 µM

O=C(O)c1ccc(Nc2nc3nn(Cc4ccccc4)cc3c(=O)s2)cc1
inactive: [1] > 100 µM | [2] > 100 µM | [3] > 100 µM | [4] > 100 µM | [6] > 100 µM | [7] > 100 µM | [8] > 100 µM | [9] > 100 µM | [10] > 100 µM | [11] > 100 µM | [17] > 100 µM | [14] > 100 µM | [15] > 100 µM | [18] > 100 µM | [16] > 100 µM

O=C(CCC(=O)Nc1cccc(Cl)c1)CC(=O)c1ccc(F)cc1
inactive: [1] > 100 µM | [2] > 100 µM | [3] > 100 µM | [4] > 100 µM | [5] > 100 µM | [6] > 100 µM | [7] > 100 µM | [8] > 100 µM | [9] > 100 µM | [10] > 100 µM | [11] > 100 µM | [12] > 100 µM | [17] > 100 µM | [14] > 100 µM | [15] > 100 µM | [16] > 100 µM

CC(=O)O[C@]12CCCCCC1C1(O)C(O)CCCCC12 (stereo partly specified)
inactive: [1] > 100 µM | [2] > 100 µM | [3] > 100 µM | [4] > 100 µM | [5] > 100 µM | [6] > 100 µM | [7] > 100 µM | [8] > 100 µM | [9] > 100 µM | [10] > 100 µM | [12] > 100 µM | [17] > 100 µM | [15] > 100 µM | [18] > 100 µM | [16] > 100 µM

CC(C)c1ccc(Cc2ccc(C(C)C)c(NC(=O)C(=O)Cc3cnc4ccccc4n3)c2C(C)C)c(C(C)C)c1NC(=O)C(=O)Cc1cnc2ccccc2n1
inactive: [1] > 100 µM | [2] > 100 µM | [3] > 100 µM | [5] > 100 µM | [6] > 100 µM | [7] > 100 µM | [8] > 100 µM | [9] > 100 µM | [10] > 100 µM | [11] > 100 µM | [17] > 100 µM | [13] > 100 µM | [14] > 100 µM | [15] > 100 µM | [16] > 100 µM

N#CC(C(=O)CCC(=O)Nc1cccc(C(F)(F)F)c1)c1ccc(Cl)cc1 (stereo unspecified)
inactive: [1] > 100 µM | [2] > 100 µM | [3] > 100 µM | [4] > 100 µM | [5] > 100 µM | [6] > 100 µM | [7] > 100 µM | [8] > 100 µM | [9] > 100 µM | [10] > 100 µM | [11] > 100 µM | [12] > 100 µM | [13] > 100 µM | [14] > 100 µM | [15] > 100 µM | [16] > 100 µM

Cc1ccc(C2OC(COCc3ccc(Cl)cc3)C(OCc3ccc(Cl)cc3)C2O)cc1 (stereo unspecified)
inactive: [1] 9.38 µM | [2] 13.7 µM | [3] 14.3 µM | [5] 4.42 µM | [6] 12.7 µM | [7] > 10 µM | [8] > 10 µM | [9] 17 µM | [10] 22.8 µM | [11] 11.5 µM | [12] 7.69 µM | [17] 11.1 µM | [14] 10.7 µM | [18] 3.19 µM | [16] 4.76 µM

CC1(C)Cc2c(oc3ncnc(N)c23)CS1
inactive: [1] > 100 µM | [2] > 100 µM | [3] > 100 µM | [4] > 100 µM | [5] > 100 µM | [7] > 100 µM | [8] > 100 µM | [9] > 100 µM | [10] > 100 µM | [11] > 100 µM | [12] > 100 µM | [17] > 100 µM | [14] > 100 µM | [15] > 100 µM | [16] > 100 µM

CCC1=C(CC)C1(C#N)[N+](=O)[O-]
inactive: [1] > 100 µM | [2] > 100 µM | [3] > 100 µM | [4] > 100 µM | [5] > 100 µM | [6] > 100 µM | [7] > 100 µM | [8] > 100 µM | [9] > 100 µM | [10] > 100 µM | [11] > 100 µM | [12] > 100 µM | [17] > 100 µM | [13] > 100 µM | [14] > 100 µM | [15] > 100 µM | [16] 82.2 µM

CC(C)N(C(=O)C12C3C4C1C1C2C3C41C(=O)N(C(C)C)C(C)C)C(C)C (stereo unspecified)
inactive: [1] > 50 µM | [2] > 50 µM | [3] > 50 µM | [4] > 50 µM | [5] > 50 µM | [6] > 50 µM | [7] > 50 µM | [8] > 50 µM | [9] > 50 µM | [10] > 50 µM | [11] > 50 µM | [12] > 50 µM | [17] > 50 µM | [13] > 50 µM | [14] > 50 µM | [15] > 50 µM | [16] > 50 µM

CCOC(=O)[C@]12C3C=CC(C3)C1C(=O)C1OC12 (stereo partly specified)
inactive: [1] > 100 µM | [2] > 100 µM | [3] > 100 µM | [4] > 100 µM | [5] > 100 µM | [6] > 100 µM | [7] > 100 µM | [8] > 100 µM | [9] > 100 µM | [10] > 100 µM | [11] > 100 µM | [12] > 100 µM | [17] > 100 µM | [13] > 100 µM | [14] > 100 µM | [15] > 100 µM | [16] > 100 µM
